For the assay, the target named is T1, CD80-CD28 interaction (Homo sapiens, UniProt P33681).
T1 construct: mouse Fab fragment (fusion partner)
T1 sequence (P33681 35-242 limits assumed): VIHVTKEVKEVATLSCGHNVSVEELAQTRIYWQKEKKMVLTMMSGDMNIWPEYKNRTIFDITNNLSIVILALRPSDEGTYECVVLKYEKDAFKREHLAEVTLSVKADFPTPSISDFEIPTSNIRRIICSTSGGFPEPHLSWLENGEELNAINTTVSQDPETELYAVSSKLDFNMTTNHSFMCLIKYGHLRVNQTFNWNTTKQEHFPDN
As to the kind of experiment: cell free Homogenous Time Resolved Fluorescence (HTRF) assay, inhibition of the CD80-CD28 interaction. Type of assay: binding. To be noted: 4 hours at room temperature, read-out: Activity (EC50 in summary form).

As usually defined, the EC50 is the midpoint of the concentration-response curve. Consider `CN(C)CCCCNC(=O)Nc1ccc(-n2nc3c4cccc(F)c4[nH]cc-3c2=O)cc1` [Example 163], for which the EC50 is < 1 µM. In the case of `O=C(NCCCCN1CCCC1)Nc1ccc(-n2nc3c4cccc(F)c4[nH]cc-3c2=O)cc1` [Example 164] it was < 1 µM; in that of `CN(C)CCCNC(=O)c1ccc(-n2nc3c4ccccc4scc-3c2=O)cc1` [Example 165, N-[3-(dimethylamino)propyl]-4-(3-oxothiochromeno[4,3-c]pyrazol-2(3H)-yl)benzamide], 1 to 10 µM.

On to `O=C(NCCCNC1CCCCC1)c1ccc(-n2nc3c4ccccc4scc-3c2=O)cc1` [Example 166, N-[(cyclohexylamino)propyl]-4-(3-oxothiochromeno[4,3-c]pyrazol-2(3H)-yl)benzamide], for which the EC50 is < 1 µM. In the case of `O=C(NCCCCN1CCCC1)c1ccc(-n2nc3c4ccccc4scc-3c2=O)cc1` [Example 167, N-(pyrrolidin-1-yl-butyl)-4-(3-oxothiochromeno[4,3-c]pyrazol-2(3H)-yl)benzamide] it was > 10 µM; in that of `CN1C(C)(C)CC(NC(=O)c2ccc(-n3nc4c5ccccc5scc-4c3=O)cc2)CC1(C)C` [Example 168, 4-(3-oxothiochromeno[4,3-c]pyrazol-2(3H)-yl)-N-1,2,2,6,6-pentamethylpiperidin-4-ylbenzamide], 1 to 10 µM; in that of `CN(C)CCCNC(=O)c1ccc(-n2nc3c4cccc(F)c4scc-3c2=O)cc1` [Example 169, N-[3-(dimethylamino)propyl]-4-(6-fluoro-3-oxothiochromeno[4,3-c]pyrazol-2(3H)-yl)benzamide], 1 to 10 µM. In the case of `O=C(NCCCNC1CCCCC1)c1ccc(-n2nc3c4cccc(F)c4scc-3c2=O)cc1` [Example 170, N-[(cyclohexylamino)propyl]-4-(6-fluoro-3-oxothiochromeno[4,3-c]pyrazol-2(3H)-yl)benzamide] it was 1 to 10 µM. As for `O=C(NCCCCN1CCCC1)c1ccc(-n2nc3c4cccc(F)c4scc-3c2=O)cc1` [Example 171, N-(pyrrolidin-1-yl-butyl)-4-(6-fluoro-3-oxothiochromeno[4,3-c]pyrazol-2(3H)-yl)benzamide], the EC50 is < 1 µM. As to `CN1C(C)(C)CC(NC(=O)c2ccc(-n3nc4c5cccc(F)c5scc-4c3=O)cc2)CC1(C)C` [Example 173, 4-(6-fluoro-3-oxothiochromeno[4,3-c]pyrazol-2(3H)-yl)-N-1,2,2,6,6-pentamethylpiperidin-4-ylbenzamide], the half-maximal effective concentration (EC50) is < 1 µM.

The values are drawn from patent US7291612B2, “Immunomodulatory compounds” (Active Biotech A.B., priority 2002, dated 2007).
